Assay results from paper PMC12697290, “Identification of novel PTP1B inhibitor for the treatment of LPS-induced myocardial apoptosis: machine learning based virtual screening and biological evaluation” (Journal of Enzyme Inhibition and Medicinal Chemistry, 2025).

Assays:
PTP1B [1] = target: T1, PTP1B (Homo sapiens, UniProt P18031); experiment: pNPP hydrolysis, absorbance at […] nm; assay type: biochemical; parameters: gene PTPN1; isolated enzyme; details: 5 mM pNPP, 50 mM Hepes, 1 mM DTT, pH 7.0, 37 °C; 10 μM compound
T1 sequence (P18031 1-435): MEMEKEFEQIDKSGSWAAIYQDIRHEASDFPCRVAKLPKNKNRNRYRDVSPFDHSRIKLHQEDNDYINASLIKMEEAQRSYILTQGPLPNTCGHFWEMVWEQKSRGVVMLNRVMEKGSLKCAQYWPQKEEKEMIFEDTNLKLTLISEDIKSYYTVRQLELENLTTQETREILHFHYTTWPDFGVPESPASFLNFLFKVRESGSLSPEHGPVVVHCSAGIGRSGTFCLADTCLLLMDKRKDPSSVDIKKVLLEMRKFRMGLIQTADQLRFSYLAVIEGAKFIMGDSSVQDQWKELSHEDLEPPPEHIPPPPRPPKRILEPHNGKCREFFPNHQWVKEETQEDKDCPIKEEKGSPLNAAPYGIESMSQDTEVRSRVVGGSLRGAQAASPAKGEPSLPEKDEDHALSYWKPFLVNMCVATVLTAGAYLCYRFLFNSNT

PTP1B [2] = target: T1, PTP1B; experiment: pNPP hydrolysis, absorbance at […] nm; assay type: biochemical; parameters: gene PTPN1; isolated enzyme
TCPTP [3] = target: T2, TCPTP (Homo sapiens, UniProt P17706); experiment: phosphatase inhibition assay (protocol printed for PTP1B: pNPP, […] nm); assay type: biochemical; parameters: gene PTPN2; isolated enzyme
T2 sequence (P17706 1-415): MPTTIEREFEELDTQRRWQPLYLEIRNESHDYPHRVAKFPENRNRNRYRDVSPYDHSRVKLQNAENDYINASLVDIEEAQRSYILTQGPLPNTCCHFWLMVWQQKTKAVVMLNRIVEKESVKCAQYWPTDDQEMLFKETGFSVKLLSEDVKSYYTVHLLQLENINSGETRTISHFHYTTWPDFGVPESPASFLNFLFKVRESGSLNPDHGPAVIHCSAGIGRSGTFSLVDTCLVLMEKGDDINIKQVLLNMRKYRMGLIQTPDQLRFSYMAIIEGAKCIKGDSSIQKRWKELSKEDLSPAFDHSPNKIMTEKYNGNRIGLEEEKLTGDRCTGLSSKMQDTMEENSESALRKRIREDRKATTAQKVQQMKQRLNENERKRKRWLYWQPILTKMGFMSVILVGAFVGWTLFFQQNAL

PTP1B [4] = target: T1, PTP1B; experiment: cellular thermal shift assay (CETSA), Western blot; assay type: cell-based; parameters: gene PTPN1; endogenous protein in AC16 human cardiomyocytes, detected by Western blot (antibody 11334-1-AP); details: AC16 cells
TCPTP [5] = target: T2, TCPTP; experiment: cellular thermal shift assay (CETSA), Western blot; assay type: cell-based; parameters: gene PTPN2; endogenous protein in AC16 human cardiomyocytes, detected by Western blot (antibody 11214-1-AP); details: AC16 cells
[6] = target: T3, acidic phosphatase (ACP1) (Homo sapiens, UniProt P24666); experiment: phosphatase inhibition assay (protocol printed for PTP1B: pNPP, […] nm); assay type: biochemical; details: conditions not stated separately for ACP1
T3 construct: isolated enzyme
T3 sequence (P24666 2-158): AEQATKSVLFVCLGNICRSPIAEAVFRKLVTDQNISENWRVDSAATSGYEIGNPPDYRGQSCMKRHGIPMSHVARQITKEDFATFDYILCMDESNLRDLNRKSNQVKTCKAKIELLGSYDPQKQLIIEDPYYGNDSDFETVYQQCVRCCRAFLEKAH

SMILES | inhibitory rate at 20 μM (PTP1B [1]) | IC50 (PTP1B [2]) | IC50 (TCPTP [3]) | CETSA stabilisation (PTP1B [4]) | CETSA stabilisation (TCPTP [5]) | IC50 [6]
O=C(O)COCC(=O)Nc1cc(SCC(O)CO)cc([N+](=O)[O-])c1 (centres unmarked) [PI-7] | compounds PI-1, PI-2 and PI-7 displayed a moderate to potent inhibitory activity against PTP1B | – | – | – | – | –
CO/N=C(\C(=O)N[C@@H]1C(=O)N2C(C(=O)O)=C(CSc3nc(=O)c(O)nn3C)CS[C@H]12)c1csc(N)n1 [PI-1] | compounds PI-1, PI-2 and PI-7 displayed a moderate to potent inhibitory activity against PTP1B | – | – | – | – | –
N#C/C(=C\c1ccc(OCC(=O)O)cc1)c1nc2ccccc2[nH]1 [PI-2] | 95.6% | 4.1 ± 0.3 µM | 5.9 ± 2.4 µM | PI-2 could effectively enhance the PTP1B and TCPTP stability in vitro | PI-2 could effectively enhance the PTP1B and TCPTP stability in vitro | > 20 µM
